Measurements from EP0353754A2, “Radioactively marked benzodiazepin derivates” (F. HOFFMANN-LA ROCHE AG, priority 1988, dated 1990).
Like-named read-outs stand apart in the source and are kept apart here.

Assay: Organ distribution of injected radioactivity in rats after I.V. injection
Assay type: in vivo, Ratten (weiblich, Wistar, spf)
Conditions: Ratte; for tissue uptake at 2 min / tissue uptake at 10 min / tissue uptake at 20 min / tissue uptake at 40 min / tissue uptake at 1 h / tissue uptake at 6 h / tissue uptake at 15 h: rat, iv, read-out: Prozent der injizierten Aktivität pro Gramm des entsprechenden Organs; for tissue uptake at 1 h: 60′
Procedure: Es werden je 3 Ratten (weiblich, Wistar, spf) zu sieben verschiedenen Zeitpunkten (2′, 10′, 20′, 40′, 1h, 6h, 15h) gemessen. Das Gewicht der Tiere lag zwischen 113 und 144 g. Die Fütterung erfolgte ad libitum. Die I.V. injizierten Dosen variierten von 184 bis 355 µCi in jeweils 0,2 ml.

Compound: CCOC(=O)c1ncn2c1CN(C)C(=O)c1c([123I])cccc1-2 [Aethyl-7-¹²³Jod-5,6-dihydro-5-methyl-6-oxo-4H-imidazo[1,5-a][1,4]benzodiazepin-3-carboxylat]
- Prozent der injizierten Aktivität in den entsprechend Organen (Totalkörper, 15h): 2,80 Prozent der injizierten Aktivität
- tissue uptake at 2 min (bladder, Blase): 0.59 %ID/g
- tissue uptake at 10 min (bladder, Blase): 1.07 %ID/g
- tissue uptake at 20 min (bladder, Blase): 0.69 %ID/g
- tissue uptake at 40 min (bladder, Blase): 0.24 %ID/g
- tissue uptake at 1 h (bladder, Blase): 0.42 %ID/g
- tissue uptake at 6 h (bladder, Blase): 0.57 %ID/g
- tissue uptake at 15 h (bladder, Blase, 15h): 0.023 %ID/g
- tissue uptake at 2 min (blood, Blut): 0.7 %ID/g
- tissue uptake at 10 min (blood, Blut): 0.87 %ID/g
- tissue uptake at 20 min (blood, Blut): 0.46 %ID/g
- tissue uptake at 40 min (blood, Blut): 0.17 %ID/g
- tissue uptake at 1 h (blood, Blut): 0.11 %ID/g
- tissue uptake at 6 h (blood, Blut): 0.04 %ID/g
- tissue uptake at 15 h (blood, Blut, 15h): 0.013 %ID/g
- tissue uptake at 2 min (brain, Hirn): 2.12 %ID/g
- tissue uptake at 10 min (brain, Hirn): 3.22 %ID/g
- tissue uptake at 20 min (brain, Hirn): 2.99 %ID/g
- tissue uptake at 40 min (brain, Hirn): 2.7 %ID/g
- tissue uptake at 1 h (brain, Hirn): 1.8 %ID/g
- tissue uptake at 6 h (brain, Hirn): 0.05 %ID/g
- tissue uptake at 15 h (brain, Hirn, 15h): 0.001 %ID/g
- tissue uptake at 2 min (heart, Herz): 0.86 %ID/g
- tissue uptake at 10 min (heart, Herz): 0.66 %ID/g
- tissue uptake at 20 min (heart, Herz): 0.3 %ID/g
- tissue uptake at 40 min (heart, Herz): 0.1 %ID/g
- tissue uptake at 1 h (heart, Herz): 0.06 %ID/g
- tissue uptake at 6 h (heart, Herz): 0.02 %ID/g
- tissue uptake at 15 h (heart, Herz, 15h): 0.007 %ID/g
- tissue uptake at 2 min (intestine, Darm): 0.75 %ID/g
- tissue uptake at 10 min (intestine, Darm): 1.1 %ID/g
- tissue uptake at 20 min (intestine, Darm): 1.73 %ID/g
- tissue uptake at 40 min (intestine, Darm): 2.02 %ID/g
- tissue uptake at 1 h (intestine, Darm): 1.97 %ID/g
- tissue uptake at 6 h (intestine, Darm): 1.55 %ID/g
- tissue uptake at 15 h (intestine, Darm, 15h): 0.143 %ID/g
- tissue uptake at 2 min (Femur): 0.54 %ID/g
- tissue uptake at 10 min (Femur): 0.45 %ID/g
- tissue uptake at 20 min (Femur): 0.24 %ID/g
- tissue uptake at 40 min (Femur): 0.1 %ID/g
- tissue uptake at 1 h (Femur): 0.07 %ID/g
- tissue uptake at 6 h (Femur): 0.02 %ID/g
- tissue uptake at 15 h (Femur, 15h): 0.007 %ID/g
- tissue uptake at 2 min (kidney, Nieren): 2.68 %ID/g
- tissue uptake at 10 min (kidney, Nieren): 7.06 %ID/g
- tissue uptake at 20 min (kidney, Nieren): 5.26 %ID/g
- tissue uptake at 40 min (kidney, Nieren): 1.35 %ID/g
- tissue uptake at 1 h (kidney, Nieren): 0.68 %ID/g
- tissue uptake at 6 h (kidney, Nieren): 0.03 %ID/g
- tissue uptake at 15 h (kidney, Nieren, 15h): 0.01 %ID/g
- tissue uptake at 2 min (liver, Leber): 2.38 %ID/g
- tissue uptake at 10 min (liver, Leber): 5.66 %ID/g
- tissue uptake at 20 min (liver, Leber): 2.62 %ID/g
- tissue uptake at 40 min (liver, Leber): 0.58 %ID/g
- tissue uptake at 1 h (liver, Leber): 0.19 %ID/g
- tissue uptake at 6 h (liver, Leber): 0.02 %ID/g
- tissue uptake at 15 h (liver, Leber, 15h): 0.016 %ID/g
- tissue uptake at 2 min (lung, Lunge): 1.22 %ID/g
- tissue uptake at 10 min (lung, Lunge): 0.87 %ID/g
- tissue uptake at 20 min (lung, Lunge): 0.44 %ID/g
- tissue uptake at 40 min (lung, Lunge): 0.15 %ID/g
- tissue uptake at 1 h (lung, Lunge): 0.1 %ID/g
- tissue uptake at 6 h (lung, Lunge): 0.03 %ID/g
- tissue uptake at 15 h (lung, Lunge, 15h): 0.011 %ID/g
- tissue uptake at 2 min (muscle, Muskel): 0.68 %ID/g
- tissue uptake at 10 min (muscle, Muskel): 0.42 %ID/g
- tissue uptake at 20 min (muscle, Muskel): 0.2 %ID/g
- tissue uptake at 40 min (muscle, Muskel): 0.09 %ID/g
- tissue uptake at 1 h (muscle, Muskel): 0.04 %ID/g
- tissue uptake at 6 h (muscle, Muskel): 0.01 %ID/g
- tissue uptake at 15 h (muscle, Muskel, 15h): 0.003 %ID/g
- tissue uptake at 2 min (ovary, Ovar): 0.88 %ID/g
- tissue uptake at 10 min (ovary, Ovar): 0.73 %ID/g
- tissue uptake at 20 min (ovary, Ovar): 0.53 %ID/g
- tissue uptake at 40 min (ovary, Ovar): 0.22 %ID/g
- tissue uptake at 1 h (ovary, Ovar): 0.16 %ID/g
- tissue uptake at 6 h (ovary, Ovar): 0.03 %ID/g
- tissue uptake at 15 h (ovary, Ovar, 15h): 0.011 %ID/g
- tissue uptake at 2 min (spleen, Milz): 0.6 %ID/g
- tissue uptake at 10 min (spleen, Milz): 0.53 %ID/g
- tissue uptake at 20 min (spleen, Milz): 0.29 %ID/g
- tissue uptake at 40 min (spleen, Milz): 0.14 %ID/g
- tissue uptake at 1 h (spleen, Milz): 0.07 %ID/g
- tissue uptake at 6 h (spleen, Milz): 0.02 %ID/g
- tissue uptake at 15 h (spleen, Milz, 15h): 0.01 %ID/g
- tissue uptake at 2 min (stomach, Magen): 0.19 %ID/g
- tissue uptake at 10 min (stomach, Magen): 0.41 %ID/g
- tissue uptake at 20 min (stomach, Magen): 0.35 %ID/g
- tissue uptake at 40 min (stomach, Magen): 0.27 %ID/g
- tissue uptake at 1 h (stomach, Magen): 0.48 %ID/g
- tissue uptake at 6 h (stomach, Magen): 0.73 %ID/g
- tissue uptake at 15 h (stomach, Magen, 15h): 0.08 %ID/g
- tissue uptake at 2 min (thyroid, Schilddrüse): 0.6 %ID/g
- tissue uptake at 10 min (thyroid, Schilddrüse): 0.54 %ID/g
- tissue uptake at 20 min (thyroid, Schilddrüse): 1.22 %ID/g
- tissue uptake at 40 min (thyroid, Schilddrüse): 0.08 %ID/g
- tissue uptake at 1 h (thyroid, Schilddrüse): 0.06 %ID/g
- tissue uptake at 6 h (thyroid, Schilddrüse): 0.03 %ID/g
- tissue uptake at 15 h (thyroid, Schilddrüse, 15h): 0.007 %ID/g
